Results published in PubChem BioAssay (NCI).
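Five concentrations, 48 hours, 96-well plates. GI50 marks 50% less growth. TGI is the concentration that stops growth completely.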

system: MDA-MB-468 breast; assay: NCI tumour cell line growth inhibition, 48 h

| SMILES | GI50 [nM] | TGI [µM] |
| --- | --- | --- |
| COc1ccc(/C(=C2/O[C@@H]([C@H]3COC(C)(C)O3)[C@H]3OC(C)(C)O[C@@H]23)c2cc(OC)c(OC)c(OC)c2)cc1O | 25600 | 63.6 |
| COc1cc2c(c(OC)c1)C1c3ccccc3NC(=O)N1CC2 (centres undefined) | 2550 | 8.57 |
| CCCC(C)c1cc(Cc2cc(Cl)cc(Cl)c2O)c(O)c(Cc2cc(Cl)cc(Cl)c2O)c1 (centres undefined) | 393 | 5.07 |
| C=CCOc1cccc(/C=C2\SC(=Nc3ccc(O)cc3)NC2=O)c1 | 416 | 4.17 |
| CC[C@@H](C(=O)O)C1CC[C@H](C)C([C@@H](C)[C@H](O)[C@H](C)C(=O)[C@H](CC)C2O[C@]3(C=C[C@@H](O)[C@]4(CC[C@@](C)(C5CC[C@](O)(CC)[C@H](C)O5)O4)O3)[C@H](C)C[C@@H]2C)O1 (some centres undefined) | 292 | 4.34 |
| CC(C)c1cc(-c2n[nH]c(=O)n2-c2ccc3c(ccn3C)c2)c(O)cc1O | < 14.3 | 0.327 |
| CC(C)C[C@H]1C(=O)O[C@H](C(C)C)C(=O)N(C)[C@@H](C(C)C)C(=O)O[C@H](C(C)C)C(=O)N(C)[C@@H](C(C)C)C(=O)O[C@H](C(C)C)C(=O)N1C | 2010 | 9.35 |
| COC(=O)[C@H](C[C@H](Cc1ccccc1)NC(=O)c1csc([C@@H](C[C@H](C(C)C)N(C)C(=O)[C@@H](NC(=O)[C@H]2CCCCN2C)C(C)C)OC(C)=O)n1)NC(=O)OCc1ccccc1 | < 0.9 | < 0.0009 |
| Oc1cccc2ccc(N/N=C/c3cc(CN4CCCCC4)c(O)c4ncccc34)nc12 | 40.1 | 0.533 |
| CC1(C)CC(=O)c2c(C(F)(F)F)nn(-c3ccc(C(N)=O)c(NC4CCC(OC(=O)CN)CC4)c3)c2C1 (centres undefined) | 24.3 | 0.0683 |
| NCCOCCOCCNc1nc(Cc2ccccc2)nc(NCCCN2CCCC2=O)n1 | > 100000 | > 100 |
| CCN(CC)CC(C)Nc1ccc([N+](=O)[O-])c2sc3ccccc3c(=O)c12 (centres undefined) | 1810 | 5.79 |
| COc1ccc(-c2n/c(=C\c3c(O)[nH]c4ccc(OC)cc34)cc3c2=Nc2ccccc2-3)cc1 | 1560 | 3.46 |
| COc1cccc2c1c(C(=O)C(=O)Nc1cc(C)no1)cn2Cc1ccc(F)cc1 | 2420 | 17.7 |
| CN1CCC(n2cnc(-c3ccc(F)cc3)c2-c2ccnc(NCCO)n2)CC1 | 10000 | > 25 |
| OC1CCN(CCCOc2c3ccc(Cl)cc3nc3c2oc2ccc(Cl)cc23)CC1 | 1820 | 7.88 |
| COc1ccc2sc3c(NCCCN(C)C)nc4ccccc4c3c(=O)c2c1 | 1620 | 3.21 |
| O=C1c2cccnc2C(=O)c2nc3cc(N4CCN(C5CC5)CC4)ccc3nc21 | 1680 | 4.03 |
| COc1ccc(-c2c3c(N)nc(-c4ccncc4)nc3nc3c2c(C)nn3-c2ccccc2)cc1 | 7750 | > 100 |
| COc1cc(/C=C/c2cc(O)c3cc(C(C)=O)c(=O)oc3c2)cc2c1O[C@]1(C)CC[C@@H](O)C(C)(C)[C@H]1C2 | 3870 | 20.5 |
| Cn1cc(-c2ccc3occ(-c4cccc(-c5ccncc5)c4)c3n2)cn1 | 240 | 0.941 |
| O=C(NCCO)Nc1ccc(-c2nc(N3CCOCC3)c3cccn3n2)cc1 | 88.9 | 2.35 |

| SMILES | GI50 [nM] | TGI [µM] |
| --- | --- | --- |
| CCc1nccc2c1nc(-c1nonc1N)n2CC | > 25000 | > 25 |
| O=C(CCCCCCC(=O)Nc1ccc(N(CCCl)CCCl)cc1)NO | 232 | 1.11 |
| COC(=O)[C@@]1(C)CC[C@]2(C)CC[C@]3(C)C4=CC=C5C(=CC(=O)C(O)=C5C)[C@]4(C)[C@@H](O)C[C@@]3(C)[C@@H]2C1 | 9710 | 21.9 |
| COc1ccc(-c2csc(N(C(=O)N3CCN(c4cc5c(cc4F)c(=O)c(C(=O)O)cn5C4CC4)CC3)c3ccccc3)n2)cc1 | 2550 | 8.74 |
| Cc1ccccc1[P+](Cc1ccccc1)(c1ccccc1)c1ccccc1 | 367 | 4 |
| CN(C)CC(=O)Nc1ccc(Cn2nnc3c2C(=O)c2nnn(Cc4ccc(NC(=O)CN(C)C)cc4)c2C3=O)cc1 | 104 | 0.258 |
| COc1cc(C2CC(c3ccc4c(c3)OCO4)=NN2C=O)cc(OC)c1OC (centres undefined) | 2050 | 6.81 |
| COc1ccc(/C=C2\CCCC3=C2N=C2SC(C)=NN2C3c2ccc(OC)c(OC)c2)cc1OC (centres undefined) | 2610 | 9.09 |
| O=C(O)/C=C\C(=O)N1C/C(=C\c2ccccc2Cl)C(=O)/C(=C/c2ccccc2Cl)C1 | 1540 | 3.46 |
| CC1SC(c2ccccc2)N(CCc2cccs2)C1=O (centres undefined) | 2430 | 8.42 |
| CCCCC(CC)CN=C(N)NC(N)=NCCCCCCN=C(N)NC(N)=NCC(CC)CCCC (centres undefined) | 1270 | 2.73 |
| Cc1cc(N(CCCl)CCCl)ccc1C=Nc1ccc(-c2csc(Cc3ccccc3)n2)cc1 | 160 | 2.86 |
| OC(c1cc(-c2ccccc2)nc2ccc(Cl)cc12)C1CCCCN1 (centres undefined) | 2010 | 3.86 |
| N=C(N)c1ccc(-c2ccc(-c3cc(Cl)cc(Cl)c3)o2)nc1 | 1690 | 3.29 |
| O=c1cc(-c2ccccc2)[nH]c2ccccc12 | 481 | – |
| Cc1ccc(-c2nc(C(Cl)Cl)nc3cc(-c4ccccc4)nn23)cc1 | 2940 | – |
| CC#C[C@]1(O)CC[C@H]2[C@@H]3CCC4=CC(=O)CCC4=C3[C@@H](c3ccc4c(c3)OCO4)C[C@@]21C | 101000 | 559 |
| Nc1nc2c(c3ncncc13)C(c1cccc(C(F)(F)F)c1)Cc1ncncc1-2 (centres undefined) | 2780 | 8.89 |
| COc1ccc2nc(-c3ccc(-c4noc(-c5cc(OC)c(OC)c(OC)c5)n4)cc3)[nH]c2c1 | 6540 | 26.3 |
| COc1ccc2c(c1)cn1c3ccc(O)cc3nc(N)c21 | 747 | 4.73 |
| COc1cccc(-n2ncc3c(N/N=C/c4ccc(C(=O)NCCN(C)C)cc4)ncnc32)c1 | 853 | 5.16 |
